Literature values, collected in patent US20050014730A1, “Anti-fungal formulation of triterpene and essential oil” (priority 2003, published 2005).

C=C(C)[C@@H]1CC[C@]2(CO)CC[C@]3(C)[C@H](CC[C@@H]4[C@@]5(C)CC[C@H](O)C(C)(C)[C@@H]5CC[C@]43C)[C@@H]12 [betulin]
solubility of betulin in water: about 0.15 mg/l
